By IC50 is commonly meant the concentration needed to halve the response being measured.

One experiment concerns the target T1, human ANO1(abc) (Homo sapiens, UniProt Q5XXA6, DEL476-501).
T1 construct: expressed in transfected cells
T1 sequence (Q5XXA6 with tags, fused parts or gaps isoform Q5XXA6-5 DEL539-564): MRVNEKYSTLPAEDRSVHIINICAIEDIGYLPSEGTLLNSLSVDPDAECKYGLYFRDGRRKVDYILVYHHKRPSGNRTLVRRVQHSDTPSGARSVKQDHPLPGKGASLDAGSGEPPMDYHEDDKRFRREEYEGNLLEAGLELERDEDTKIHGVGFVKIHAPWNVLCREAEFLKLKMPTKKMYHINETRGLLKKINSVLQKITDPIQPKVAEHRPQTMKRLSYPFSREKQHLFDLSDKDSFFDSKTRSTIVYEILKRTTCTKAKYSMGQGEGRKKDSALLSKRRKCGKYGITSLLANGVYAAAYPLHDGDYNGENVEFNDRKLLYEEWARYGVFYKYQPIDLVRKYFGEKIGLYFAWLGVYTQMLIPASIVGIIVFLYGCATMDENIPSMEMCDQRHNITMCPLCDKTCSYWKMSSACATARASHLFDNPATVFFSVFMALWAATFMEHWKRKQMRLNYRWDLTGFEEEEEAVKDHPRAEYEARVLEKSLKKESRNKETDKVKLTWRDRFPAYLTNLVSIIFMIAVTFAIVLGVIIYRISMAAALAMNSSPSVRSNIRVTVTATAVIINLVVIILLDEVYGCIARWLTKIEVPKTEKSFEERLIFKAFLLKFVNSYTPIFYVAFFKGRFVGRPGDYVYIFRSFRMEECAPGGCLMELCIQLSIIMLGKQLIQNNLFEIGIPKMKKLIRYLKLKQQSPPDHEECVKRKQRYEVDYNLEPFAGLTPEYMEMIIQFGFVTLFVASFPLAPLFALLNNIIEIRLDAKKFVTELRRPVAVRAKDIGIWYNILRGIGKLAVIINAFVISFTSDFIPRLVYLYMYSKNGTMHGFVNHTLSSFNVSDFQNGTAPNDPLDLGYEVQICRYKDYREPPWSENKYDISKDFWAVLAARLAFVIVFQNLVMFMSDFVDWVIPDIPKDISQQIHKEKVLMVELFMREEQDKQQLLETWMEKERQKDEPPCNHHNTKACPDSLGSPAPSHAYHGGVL
In words: YFP fluorescence plate reader assay of iodide influx in ANO1 expressing FRT cells. It counts as cell-based. Particulars: read-out: IC50 of ANO1 inhibition. As to the method:
Cell based screening was performed as described in previous study. Briefly, ANO1 and YFP expressing FRT cells were plated in 96-well black-walled microplates (Corning Inc., Corning, NY) at a density of 20,000 cells per well, and then cultured for 2 days. Assays were done using FLUOstar Omega microplate reader (BMG Labtech, Ortenberg, Germany) and MARS Data Analysis Software (BMG Labtech). Each well of 96-well plate was washed 3 times in PBS (200 μL/wash), leaving 100 μL PBS. Test compounds (1 μL) were added to each well at 25 μM final concentration. After 10 min, 96-well plates were transferred to a plate reader for fluorescence assay. Each well was assayed individually for TMEM16A-mediated I^- influx by recording fluorescence continuously (400 ms per point) for 1 s (baseline), then 100 μL of 140 mM I^- solution containing 200 μM ATP was added at 1 s and then YFP fluorescence was recorded for 5 s. Initial iodide influx rate was determined from the initial slope of fluorescence decrease, by nonlinear regression, following infusion of iodide with ATP.
ANO1 chloride channel activity was measured using Fischer rat thyroid (FRT) cells stably expressing human ANO1(abc) and the genetically encoded iodide-sensing fluorescent protein, YFP-F46L/H148Q/I152L. This cell model was used because of our prior success in ANO1 chloride channel drug discovery. For the screening to identify ANO1 inhibitors, the FRT cells were pre-incubated with test compounds for 10 minutes prior to addition of an iodide and ATP, an agonist of P2 purinergic receptor which induces an increase in intracellular calcium concentration and activation of ANO1, containing solution.

The next experiment concerns the target T2, ANO1 (Homo sapiens, UniProt Q5XXA6, DEL476-501).
T2 construct: expressed in transfected cells
T2 sequence (Q5XXA6 with tags, fused parts or gaps isoform Q5XXA6-5 DEL539-564): T1 sequence (Q5XXA6 with tags, fused parts or gaps isoform Q5XXA6-5 DEL539-564)
In words: Apical membrane current in ANO1 expressing FRT cells. Format: cell-based. Conditions: 100 μM ATP. As to the method:
(§1) Snapwell inserts containing ANO1, ANO2 or CFTR expressing FRT cells, ENaC expressing T-84 cells or the human primary airway epithelial cells were mounted in Ussing chambers (Physiologic Instruments, San Diego, CA). To induce transcriptional ENaC induction, the polarized T84 cells were incubated with 2 mM sodium butyrate for 2 days. To increase the functional expression of ANO1, the human airway epithelial cells were treated with IL-4 (10 ng/mL) for 2 days. For T-84 and the human primary airway epithelial cells, the apical and basolateral bath were filled with HCO3^—buffered solution containing (in mM): 120 NaCl, 5 KCl, 1 MgCl2, 1 CaCl2, 10 D-glucose, 2.5 HEPES, and 25 NaHCO3 (pH 7.4). For FRT cells, the basolateral bath was filled with the HCO3^—buffered solution and the apical bath was filled with a half-Cl^- solution. In the half-Cl^- solution 65 mM NaCl in the HCO3^—buffered solution was replaced by Na-gluconate. […] ATP was applied to the apical bath solution to induce intracellular calcium increase. […] Apical membrane currents were measured with an EVC4000 Multi-Channel V/I Clamp (World Precision Instruments, Sarasota, FL) and PowerLab 4/35 (AD Instruments, Castle Hill, Australia). Data were analyzed using Labchart Pro 7 (AD Instruments). The sampling rate was 4 Hz.

Experiment [1] relates to VRAC. In words: VRAC activity by YFP quenching in LN215 cells. Format: cell-based, human. Particulars: 10 μM. As to the method:
LN215 cells, a human glioma cell line, were stably transfected with YFP-F46L/H148Q/I152L, a halide sensor YFP. After the cells were incubated on 96well black plates (Corning Inc., Corning, NY) for 48 hours, each well of the 96-well plate was washed 3 times in PBS (200 μL/wash), and the wells were filled with 50 μl/well isotonic solution (in mM): 140 NaCl, 5 KCl, 20 HEPES (310 mOsm/kg; pH 7.4 with NaOH). In each well, VRAC expressed on the cells were stimulated with addition of 50 μl of hypotonic solutions (in mM): 5 KCl, 20 HEPES, 90 mannitol (120 mOsm/kg). Test compounds (1 μL) were added to each well in a dose dependent manner. After 5 min, 96-well plates were transferred to a plate reader for fluorescence assay. Each well was assayed individually for VRAC-mediated I^- influx by recording fluorescence continuously (400 ms per point) for 7.6 s. YFP fluorescence was recorded 0.4 s for baseline, then 100 μL of 140 mM I^- solution was added at 0.4 s to see the change in fluorescence. Initial iodide influx rate was determined from the initial slope of fluorescence decrease, by nonlinear regression, following infusion of iodide.

A further experiment has as its target T3, mouse ANO2 (Mus musculus, UniProt Q8CFW1).
T3 sequence (Q8CFW1 1-1002): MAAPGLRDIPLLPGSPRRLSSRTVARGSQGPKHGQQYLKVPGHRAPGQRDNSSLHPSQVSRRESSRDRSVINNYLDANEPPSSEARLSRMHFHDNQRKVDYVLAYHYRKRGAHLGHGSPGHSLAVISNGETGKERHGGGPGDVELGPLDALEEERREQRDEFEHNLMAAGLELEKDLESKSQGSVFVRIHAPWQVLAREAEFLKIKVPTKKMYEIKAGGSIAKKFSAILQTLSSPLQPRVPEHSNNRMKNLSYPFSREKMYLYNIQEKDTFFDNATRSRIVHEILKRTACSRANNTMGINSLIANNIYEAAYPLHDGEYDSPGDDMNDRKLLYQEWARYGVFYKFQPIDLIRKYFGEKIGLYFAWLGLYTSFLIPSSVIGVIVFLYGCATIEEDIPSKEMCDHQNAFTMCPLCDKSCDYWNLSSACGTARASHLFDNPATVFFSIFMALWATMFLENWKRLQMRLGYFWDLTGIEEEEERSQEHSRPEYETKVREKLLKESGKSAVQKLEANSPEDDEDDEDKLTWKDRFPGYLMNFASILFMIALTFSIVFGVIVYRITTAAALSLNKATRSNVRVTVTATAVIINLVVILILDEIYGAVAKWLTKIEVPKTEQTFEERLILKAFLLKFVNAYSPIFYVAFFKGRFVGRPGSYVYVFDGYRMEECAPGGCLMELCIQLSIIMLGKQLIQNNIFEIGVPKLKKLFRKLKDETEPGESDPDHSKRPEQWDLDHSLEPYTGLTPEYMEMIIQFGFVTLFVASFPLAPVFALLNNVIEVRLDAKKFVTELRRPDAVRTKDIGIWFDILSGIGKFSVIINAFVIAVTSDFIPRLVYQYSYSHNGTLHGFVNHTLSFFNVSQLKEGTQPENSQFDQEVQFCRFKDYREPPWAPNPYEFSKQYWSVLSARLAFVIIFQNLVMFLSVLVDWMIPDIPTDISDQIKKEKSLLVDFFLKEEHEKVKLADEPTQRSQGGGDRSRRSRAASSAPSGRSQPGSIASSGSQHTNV
In words: YFP quenching assay in FRT cells expressing ANO2. It counts as cell-based. Conditions: dose dependent, 100 μM ATP.

A further experiment has as its target T4, ANO2 (Mus musculus, UniProt Q8CFW1).
T4 sequence (Q8CFW1 1-1002): T3 sequence (Q8CFW1 1-1002)
In words: Apical membrane current in FRT-ANO2 cells. It counts as cell-based. Particulars: 10 μM pretreatment. As to the method:
as §1
ANO1 belongs to anoctamin gene family which contains ten members presenting eight-pass transmembrane segments with cytosolic N- and C-terminals. ANO2 shares a high level of amino acid homology to ANO1 (~60%) and, ANO1 and ANO2 are confirmed CaCCs. However, the roles of other family members (ANO3-ANO10) remain poorly understood and controversial. […] We investigated the effect of these inhibitors on ANO2-mediated apical membrane current in FRT-ANO2 cells.

Experiment [2] deals with VRAC. More on the design: method as in PMID 24965069, PMID 25163766, PMID 26438191. Particulars: ref [26]–[28]; cited from earlier work.
For the next experiment, the target named is T5, human wild-type CFTR (Homo sapiens, UniProt P13569).
T5 construct: expressed in transfected cells; host or cells: Fischer rat thyroid (FRT) cells
T5 sequence (P13569 whole entry): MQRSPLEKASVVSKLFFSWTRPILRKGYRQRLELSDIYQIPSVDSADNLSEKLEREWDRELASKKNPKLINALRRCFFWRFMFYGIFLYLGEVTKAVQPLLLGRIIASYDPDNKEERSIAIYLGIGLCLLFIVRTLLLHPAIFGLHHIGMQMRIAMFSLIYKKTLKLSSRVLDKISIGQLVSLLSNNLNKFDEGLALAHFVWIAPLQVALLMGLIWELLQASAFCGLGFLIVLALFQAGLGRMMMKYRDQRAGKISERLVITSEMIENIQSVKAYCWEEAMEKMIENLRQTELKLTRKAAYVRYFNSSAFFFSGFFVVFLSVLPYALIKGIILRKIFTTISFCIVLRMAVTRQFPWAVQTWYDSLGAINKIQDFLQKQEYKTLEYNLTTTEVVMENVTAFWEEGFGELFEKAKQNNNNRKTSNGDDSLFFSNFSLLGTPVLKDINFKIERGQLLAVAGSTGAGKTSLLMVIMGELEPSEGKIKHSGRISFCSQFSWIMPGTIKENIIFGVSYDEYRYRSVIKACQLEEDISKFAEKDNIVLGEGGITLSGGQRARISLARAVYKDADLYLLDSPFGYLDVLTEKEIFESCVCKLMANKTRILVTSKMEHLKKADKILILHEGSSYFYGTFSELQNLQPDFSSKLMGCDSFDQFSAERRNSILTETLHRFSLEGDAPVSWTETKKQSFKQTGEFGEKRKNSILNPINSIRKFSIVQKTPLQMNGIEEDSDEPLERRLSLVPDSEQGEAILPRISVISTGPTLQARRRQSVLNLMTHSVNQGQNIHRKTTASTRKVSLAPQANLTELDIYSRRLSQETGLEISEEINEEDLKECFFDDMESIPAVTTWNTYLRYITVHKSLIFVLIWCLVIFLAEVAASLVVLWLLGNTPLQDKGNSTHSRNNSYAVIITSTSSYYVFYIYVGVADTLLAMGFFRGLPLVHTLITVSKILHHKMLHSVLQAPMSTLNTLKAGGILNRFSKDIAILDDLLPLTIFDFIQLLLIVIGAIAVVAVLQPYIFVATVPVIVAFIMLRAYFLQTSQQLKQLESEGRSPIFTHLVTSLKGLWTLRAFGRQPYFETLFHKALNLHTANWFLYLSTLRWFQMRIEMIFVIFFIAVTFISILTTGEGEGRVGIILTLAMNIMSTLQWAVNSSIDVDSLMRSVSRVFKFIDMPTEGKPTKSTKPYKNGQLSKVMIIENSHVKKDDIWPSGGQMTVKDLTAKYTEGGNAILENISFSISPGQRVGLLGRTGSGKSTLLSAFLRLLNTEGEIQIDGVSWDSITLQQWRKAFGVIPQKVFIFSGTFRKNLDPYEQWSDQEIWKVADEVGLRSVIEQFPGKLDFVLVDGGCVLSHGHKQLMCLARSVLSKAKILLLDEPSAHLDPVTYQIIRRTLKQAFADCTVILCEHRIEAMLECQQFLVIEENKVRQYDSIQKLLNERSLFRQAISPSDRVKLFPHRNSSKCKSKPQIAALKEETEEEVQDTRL
Put plainly: Apical membrane current in FRT cells expressing CFTR. It counts as cell-based. Conditions: 10 μM, CFTR activated by 20 μM forskolin. As to the method: as §1
ANO1 was activated by either 10 μM Eact, an ANO1 activator, or 100 μM ATP.

On to `COc1ccccc1/C=N/NC(=O)COc1ccc(I)cc1` [#5], for which the IC50 at human ANO1(abc) amounted to 481 nM.

`Cc1cc(Cl)ccc1OCC(=O)N/N=C/c1ccc(O)cc1` [#3]: at human ANO1(abc), the 50% inhibitory concentration (IC50) amounted to 301 nM.

Take `Cc1cc(Cl)ccc1OCC(=O)N/N=C/c1ccc(O)cc1O` [#7]: the IC50 on human ANO1(abc) came to 572 nM.

As for `CCc1ccc(Br)cc1/C=N/NC(=O)COc1ccc(Br)cc1` [#6], the IC50 on human ANO1(abc) is 512 nM.

With `COc1ccccc1/C=N/NC(=O)COc1ccc(Br)cc1OC` [#4], the IC50 at human ANO1(abc) amounted to 438 nM.

For the molecule `COc1ccc(OC)c(/C=N/NC(=O)COc2ccc(Cl)cc2C)c1` [#2], on human ANO1(abc), the IC50 worked out at 262 nM.

Turning to `COc1cc(Nc2ccc([N+](=O)[O-])cc2C(=O)O)cc2ccccc12` [MONNA, N-((4-methoxy)-2-naphthyl)-5-nitroanthranilic acid], the “inhibition of ATP-induced ANO1 current” value at ANO1 (10 μM pretreatment) is on record as “almost complete inhibition”. Also, the IC50 at ANO1 (apical membrane current, 20 min pretreatment, read-out: IC50 of ATP-induced ANO1 activation) was 1950 ± 1160 nM. Also, the “inhibition of VRAC activity” value in the experiment with VRAC [1] came to 87.9 ± 1.7%. The “effect on ANO2 activity” value at mouse ANO2 was “potently blocked”. In addition, the “effect on ATP-induced ANO2 current” value on ANO2 was “strongly blocked”.

In the case of `O=C(Nc1cc(C(F)(F)F)cc(C(F)(F)F)c1)Nc1ccc(Br)cc1-c1nnn[nH]1` [NS3728], the “block of VRAC activity” value with VRAC [2] is listed as “potently blocked”.

Regarding `CCOc1cc(I)cc(/C=N/NC(=O)COc2cccc(C)c2C)c1O` [#8], at human ANO1(abc), the half-maximal inhibitory concentration (IC50) turned out to be 894 nM.

Take `CCOc1ccc(Br)cc1/C=N/NC(=O)COc1ccc(Cl)cc1Cl` [#1]: on human ANO1(abc), the half-inhibitory concentration (IC50) was 194 nM.

For `Cc1cc(Cl)ccc1OCC(=O)N/N=C/c1ccccc1O` [#9], the IC50 on human ANO1(abc) stood at 1020 nM.

Take CFTRinh-172: on human wild-type CFTR, the “effect on CFTR channel activity” value is “inhibited”.

These data come from paper PMC4878759 (PLoS ONE, 2016).
